One assay has as its system T1, TlGE15.
T1 construct: gene tlge; mature protein with N-terminal CBM1 and CE15 domain; native signal peptide (21 of 474 residues) removed; alpha-factor secretion signal, C-terminal His6 tag kept; Pichia pastoris X33
Description: HPLC of released cinnamyl alcohol (UV […] nm), Michaelis-Menten fit. The format is biochemical, Trametes ljubarskyi. The note with it: 40 °C, pH 5; substrate 0.2–5.0 mM; read-out: Kinetic parameters / KM.

A further assay concerns T2, AeGE15.
T2 construct: gene aege; mature protein with N-terminal CBM1 and CE15 domain; native signal peptide (21 of 471 residues) removed; alpha-factor secretion signal, C-terminal His6 tag kept; Pichia pastoris X33
The assay is described as above. Type of assay: biochemical, Artolenzites elegans. The note with it: 50 °C, pH 5; substrate 0.2–5.0 mM; read-out: Kinetic parameters / KM.

Structures are written as SMILES.

Consider `O=C(OC/C=C/c1ccccc1)[C@H]1OC(O)[C@H](O)[C@@H](O)[C@@H]1O` (stereo partly drawn) [trans−3-phenyl-2-propen-1-yl D-glucopyranosyluronate], for which the results for the Km in the assay with TlGE15 and in the assay on AeGE15 were 3.2 ± 0.5 mM and 3.6 ± 0.6 mM, respectively.
